In brackets after ≈: the same amount, converted by molar mass.
Tests used:
rat EP4 receptor = biological target: T1, rat EP4 receptor (Rattus norvegicus, UniProt P43114); assay: Evaluation test on rat EP4 receptor affinity ([3H]PGE2 binding assay); details: rat EP4 expressed in HEK293 membrane fraction, [3H]PGE2 0.3 nM
T1 construct: expressed in transfected cells; host or cells: HEK293
Procedure: Test Example 1: Evaluation Test on Rat EP4 Receptor Affinity
Cell Culture and Transfection
Using a 10 cm collagen-coated dish (Asahi Glass), HEK293 cells were cultured in a D-MEM culture medium, washed with a phosphate buffer saline (PBS), the culture medium was removed off at a confluence (90 to 100% density state), and then the cells were detached with N,N,N′,N′-tetrakis(carboxymethyl)ethylenediamine (EDTA). The cells were counted and seeded on a 15 cm collagen-coated dish to a confluence of 70%. The next day, to an Opti-MEM culture medium at 1.2 mL/dish was added Lipofectamine 2000 (Invitrogen) at 60 μL/dish, followed by being left to stand at room temperature for 5 minutes. A plasmid in which a rat EP4 (alignment number 1) had been inserted into a TA cloning site of pcDNA3.1-V5-His-topo was added thereto to 15 μg/dish. After leaving it to stand at room temperature for 30 minutes, the resultant was added to the dish, and cultured for 20 to 24 hours. The cell culture was carried out in a CO2 incubator (37° C., 5% CO2).
Preparation of Membrane Fraction
The culture medium was removed by suction, 10 mL of cooled PBS was added thereto per 15 cm dish, and the cells were scraped using a cell scraper (Sumitomo Bakelite). They were washed with cooled PBS (1,200 rpm, 4° C., 5 min), and then suspended in 6 mL of cooled 20 mM Tris-HCl (pH 7.4; Nakalai Tesque Inc., including 5 mM EDTA (Nakalai Tesque Inc.) per dish. Then, it was homogenized using a Polytron and the homogenate was centrifuged (26,000 rpm, 20 min, 4° C.). The obtained precipitate was resuspended in cooled 20 mM Tris-HCl, and homogenized again using a Polytron, and the homogenate was centrifuged (26,000 rpm, 20 min, 4° C.). The obtained precipitate was resuspended in 50 mM HEPES (pH 7.5; Dojindo Laboratories) to 1 mL per dish, homogenized again using a Polytron, and freeze-stored at −80° C. as a membrane fraction. At this time, a part thereof was used for the measurement of the protein concentration. Measurement of the protein concentration was carried out using a Bio-Rad Protein assay kit (Bio-Rad Laboratories) in accordance with the appended standard Protocol in duplicate.
[^3H] PGE2 50 μL (final concentration 0.3 nM; Perkin Elmer), 100 μL (20 μg/well) of a membrane fraction prepared from the rat EP4 expression cell, and 50 μL of a test compound were mixed in a 96-well microplate (Sumitomo Bakelite), incubated at room temperature for 1 hour, then filtered by suction on a UniFilter-96 GF/B (Perkin Elmer) using a FilterMate Harvester (Perkin Elmer), and washed three times with 300 μL/well of a cooled assay buffer. Dilution of [^3H]PGE2 and the membrane fraction was carried out using an assay buffer (50 mM HEPES, 10 mM MgCl2), and dilution of the test compound and the unlabeled PGE2 was carried out using DMSO and an assay buffer. Further, in the case of the addition of a human serum albumin (HSA), dilution was carried out using an assay buffer containing 4% HSA (final concentration 1%; Sigma). The UniFilter-96 GF/B was treated by preliminarily washing twice with 200 μL/well of a cooled assay buffer. The UniFilter-96 GF/B after filtration was dried in a dryer overnight, 50 μL/well of MicroScint20 (Perkin Elmer) was added thereto, and then the radioactivity was measured using a TopCount (Perkin Elmer). For measurement of the non-specific binding, an unlabeled PGE2 (final concentration 1 μM; Cayman) was added. All of the measurements were carried out in duplicate, and the specific binding amount was determined by subtracting the non-specific binding amount from the total binding amount.
According to Test Example 1 as above, the rat EP4 receptor affinity (Ki) of the compound of the formula (I) was measured.

Solubility test = format: physicochemical; details: pH 1.2, simulated gastric fluid, kinetic from dmso stock; first liquid for disintegration test of Japanese Pharmacopoeia, 25° C., shaking 20 hours
Procedure: Test Example 3: Solubility Test
To 13 μL of a 10 mM DMSO solution of a test material that had been prepared in advance was added exactly 1 mL of a first liquid for a disintegration test of Japanese Pharmacopoeia, followed by shaking at 25° C. for 20 hours, thereby giving a sample stock solution. Next, using a filter impregnated with 200 μL of the sample stock solution, 200 μL of a fresh sample stock solution was added for filtration to obtain a liquid, which was taken as a sample solution. Apart from this, to 10 μL of the 10 mM DMSO solution of the test material was added accurately 1 mL of methanol, followed by stirring, thereby giving a standard solution. 10 μL of the sample solution and the standard solution were tested by liquid chromatography, respectively, and the ratio of the peak area of the sample solution to the peak area of the standard solution was determined, thereby calculating the solubility. For example, the solubilities of the compounds of Examples 23, 25, 31, 32, 50, 55, 57, 60, 93, and 284 were 51 μg/mL, 26 μg/mL, ≧53 μg/mL, 46 μg/mL, 47 μg/mL, ≧52 μg/mL, ≧50 μg/mL, 40 μg/mL, ≧53 μg/mL, and <1 μg/mL, respectively.

[1] = test system: urinary albumin excretion (UAE) in STZ diabetic rats; assay: Effect on urine albumin in streptozotocin-induced (STZ) diabetic rats; format: in vivo, rat; details: male Wistar rats, STZ 50 mg/kg i.v.; 30 mg/kg oral, fourth week of administration; vehicle group 3.1±0.7 mg/day
Procedure: Test Example 2: Test to Study the Effect on Urine Albumin in Streptozotocin-induced (STZ) Diabetic Rats.
Eight-week old male Wistar (Crj) rats were divided into groups with unbiased urinary albumin excretion (UAE), and STZ (50 mg/kg) was intravenously administered thereto. From the next day of administration of STZ, the drug was continuously orally administered, and urine was periodically collected in a metabolism cage for 24 hours to measure the UAE.

T1 sequence (P43114 whole entry): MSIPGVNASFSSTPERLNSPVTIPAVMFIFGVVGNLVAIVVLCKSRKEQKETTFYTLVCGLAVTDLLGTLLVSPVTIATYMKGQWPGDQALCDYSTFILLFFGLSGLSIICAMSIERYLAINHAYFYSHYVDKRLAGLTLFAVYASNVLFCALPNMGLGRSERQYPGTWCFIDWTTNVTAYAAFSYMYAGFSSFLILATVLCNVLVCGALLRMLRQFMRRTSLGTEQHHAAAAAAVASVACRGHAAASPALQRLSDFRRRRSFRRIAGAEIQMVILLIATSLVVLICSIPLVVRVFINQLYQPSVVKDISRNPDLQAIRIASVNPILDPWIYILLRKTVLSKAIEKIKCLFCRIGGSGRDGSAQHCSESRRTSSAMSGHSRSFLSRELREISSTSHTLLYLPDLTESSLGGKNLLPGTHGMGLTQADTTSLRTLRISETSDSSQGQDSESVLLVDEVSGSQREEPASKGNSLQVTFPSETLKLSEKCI

SMILES | Ki (rat EP4 receptor) [nM] | solubility at 20 h (Solubility test) [µg/mL] | urinary albumin excretion (UAE) [1] [mg/day]
Cn1ccc2ccc(C(=O)N[C@@H](CCCNC(=O)OCc3ccccc3)C(=O)N[C@H]3CCC[C@H]3C(=O)O)cc21 [Example 25] | 0.66 | 26 (≈ 48.6 µM) | 
Cn1ccc2cccc(C(=O)N[C@@H](CCCNC(=O)OCc3ccccc3)C(=O)N[C@H]3CCC[C@H]3C(=O)O)c21 [Example 93] | 0.79 | ≥ 53 | 
Cn1c(C(=O)N[C@@H](CCCNC(=O)OCc2ccccc2)C(=O)N[C@H]2CCC[C@H]2C(=O)O)cc2ccccc21 [Example 2, (1R,2S)-2-({N^5-[(benzyloxy)carbonyl]-N^2-[(1-methyl-1H-indol-2-yl)carbonyl]-L-ornithyl}amino)cyclopentanecarboxylic acid] | 0.92 |  | 
COc1cccc(C(=O)N[C@@H](CCCNC(=O)OCc2ccccc2)C(=O)N[C@H]2CCC[C@H]2C(=O)O)c1 [Example 26] | 1.6 |  | 
Cn1c([C@@H]2CCC[C@@H]2NC(=O)[C@H](CCCNC(=O)OCc2ccccc2)NC(=O)c2cc3ccccc3n2C)n[nH]c1=S [Example 120] | 9.8 |  | 
Cn1c(C(=O)N[C@@H](CCCNC(=O)OCc2ccccc2)C(=O)N[C@H]2CCC[C@H]2c2n[nH]c(=S)o2)cc2ccccc21 [Example 119] | 2.1 |  | 
COc1ccc2[nH]c(C(=O)N[C@@H](CCCNC(=O)OCc3ccccc3)C(=O)N[C@H]3CCC[C@H]3c3nnn[nH]3)cc2c1 [Example 164] | 0.29 |  | 
O=C(NCCC[C@H](NC(=O)c1cccc(Cl)c1)C(=O)N[C@H]1CCC[C@H]1C(=O)O)OCc1ccccc1 [Example 32] | 1.3 | 46 (≈ 89.1 µM) | 
O=C(NCCC[C@H](NC(=O)c1ccc2ccccc2n1)C(=O)N[C@H]1CCC[C@H]1C(=O)O)OCc1ccccc1 [Example 23] | 0.43 | 51 (≈ 95.8 µM) | 0.9 ± 0.1
Cn1c(C(=O)N[C@@H](CCCNC(=O)OCc2ccccc2)C(=O)N[C@H]2CCC[C@H]2C(=O)NS(=O)(=O)CCCO)cc2ccccc21 [Example 176] | 4 |  | 
O=C(NCCC[C@H](NC(=O)c1cccc(Cl)n1)C(=O)N[C@H]1CCC[C@H]1C(=O)O)OCc1ccccc1 [Example 76] | 1.8 |  | 
CC(=O)c1cn(C)c2cc(C(=O)N[C@@H](CCCNC(=O)OCc3ccccc3)C(=O)N[C@H]3CCC[C@H]3C(=O)O)ccc12 [Example 60] | 1.1 | 40 (≈ 69.4 µM) | 
Cn1c(C(=O)N[C@@H](CCCNC(=O)OCc2ccccc2)C(=O)N[C@H]2CCC[C@H]2c2nnn[nH]2)cc2ccccc21 [Example 83] | 0.52 |  | 
Cc1cc(C)n(C)c1C(=O)N[C@@H](CCCNC(=O)OCc1ccccc1)C(=O)N[C@H]1CCC[C@H]1C(=O)O [Example 36] | 9.8 |  | 
CC(C)COC(=O)NCCC[C@H](NC(=O)c1cc2ccccc2n1C)C(=O)N[C@H]1CCC[C@H]1C(=O)O [Example 159] | 6 |  | 
O=C(/C=C/c1ccccc1O)N[C@@H](CCCNC(=O)OCc1ccccc1)C(=O)N[C@H]1CCC[C@H]1C(=O)O [Example 55] | 0.92 | ≥ 52 | 
CN(C)c1cccc(C(=O)N[C@@H](CCCNC(=O)OCc2ccccc2)C(=O)N[C@H]2CCC[C@H]2C(=O)O)c1 [Example 31] | 1.1 | ≥ 53 | 
Cn1c(C(=O)N[C@@H](CCCNC(=O)OCC2CCCCC2)C(=O)N[C@H]2CCC[C@H]2C(=O)O)cc2ccccc21 [Example 160] | 0.43 |  | 
Cn1ccc2c(C(=O)N[C@@H](CCCNC(=O)OCc3ccccc3)C(=O)N[C@H]3CCC[C@H]3C(=O)O)cccc21 [Example 50] | 0.78 | 47 (≈ 87.9 µM) | 
COc1ccc2[nH]c(C(=O)N[C@@H](CCCNC(=O)OCc3ccccc3)C(=O)N[C@H]3CCC[C@H]3C(=O)O)cc2c1 [Example 165] | 0.26 |  | 
COc1ccc2c(c1)cc(C(=O)N[C@@H](CCCNC(=O)OCc1ccccc1)C(=O)N[C@H]1CCC[C@H]1c1nnn[nH]1)n2C [Example 169] | 0.29 |  | 
Cn1c(C(=O)N[C@@H](CCCNC(=O)OCc2ccccc2)C(=O)N[C@H]2CCCC[C@H]2C(=O)O)cc2ccccc21 [Example 22] | 0.53 |  | 
Cc1cc(C(=O)N[C@@H](CCCNC(=O)OCc2ccccc2)C(=O)N[C@H]2CCC[C@H]2C(=O)O)n(C)c1 [Example 57] | 0.72 | ≥ 50 | 

From patent publication US8030489B2, “Ornithine derivative” (Astellas Pharma Inc., priority 2007, dated 2011)
